Measured values reported in patent publication US20240018132A1, “5-HYDROXY-1,4-NAPHTHALENEDIONE FOR USE IN THE TREATMENT OF CANCER” (GODAVARI BIOREFINERIES LIMITED, priority 2020, published 2024).

Tests used:
[1] = test system: MDAMB231; test: Wound Healing Assay (WHA), breast cancer cell line; type: cell-based; details: IC10 conc. of compound
Method: (§1) Wound Healing Assay (WHA) determines the ability of cancer stem cells to heal the wound formed in a confluent monolayer.
(§2) Procedure: 0.35×10^6 cells were plated in each well of 6 Tissue Culture well plates. The plate was incubated for 48 hrs at 37° C., 5% CO2. […] IC10 conc. of the respective compound was added into each well. The plates were incubated at 37° C., 5% CO2 and the width of scratch was measured at various time intervals such as 6, 24 and 48 hours. Average of 3 distances were taken for each time point using IS camera Measure. A plot of average width of scratch in micrometer was plotted against the time interval after treatment.

[2] = test system: MDAMB231; test: In vitro sphere-forming assay (cancer stem cells), Mammosphere media; details: for 3D sphere count of MDAMB231: Mammosphere media, 2000 cells/well, n = 6 ± S.D
[3] = test system: MDAMB231; test: In vitro antiproliferative assay (MTT assay), breast cancer cell line; type: cell-based; details: Homo sapiens, MDA-MB-231, 48 h, MTT assay, breast cancer MDAMB231, 48 hrs drug incubation
Method in brief: (§3)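 MTT read-out after 48 h drug exposure; cells pre-incubated 24 h at 37 °C, 5% CO2. MTT 0.5 mg/ml, 4 h; crystals solubilized in DMSO. Data: log % viability vs log concentration.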

[4] = test system: PC3; test: Soft agar colony-formation assay, prostate cancer; type: cell-based; details: for anticancer activity in comparison with cisplatin, soft agar, prostate cancer cell line: FIG. 52, PC3; for IC50: Homo sapiens, PC-3, 168 h, Soft Agar Assay, 1 week, Alamar Blue
Method in brief: (§4)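 Cells were plated in soft agar with drug over an agar base layer and grown 1 week at 37 °C/5% CO2, with feeding on day 3. Colonies were quantified with Alamar Blue (24 h, 37 °C) by absorbance at 630 nm. Log % viability was plotted against log drug concentration.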

[5] = test system: MDAMB231; test: Soft agar colony-formation assay, breast cancer; type: cell-based; details: for anticancer activity in comparison with cisplatin, soft agar, breast cancer cell line: FIG. 51, MDAMB231; for IC50: Homo sapiens, MDA-MB-231, 168 h, Soft Agar Assay, 1 week, Alamar Blue
Method in brief: as §4

[6] = test system: PC3; test: In vitro antiproliferative assay (MTT assay), prostate cancer cell line; type: cell-based; details: Homo sapiens, PC-3, 48 h, MTT assay, prostate cancer PC3, 48 hrs drug incubation
Method in brief: as §3

[7] = test system: PC3; test: Wound Healing Assay (WHA), prostate cancer cell line; type: cell-based; details: IC10 conc. of compound
Method: as §1, §2

[8] = test system: Aldehyde dehydrogenase (ALDH); test: Aldehyde Dehydrogenase (ALDH) assay, ELISA kit; type: cell-based; details: MDAMB231, 48 hrs
Excerpt: Aldehyde dehydrogenases (ALDH) are a family of enzymes that catalyze the metabolism of exogenous and endogenous aldehydes, preventing the accumulation of potentially reactive and toxic aldehydes and their metabolites. In addition to their role in aldehyde metabolism, ALDH enzymes also play critical roles in other cellular processes such as cell proliferation, differentiation, and survival. ALDH also serves as a marker for certain stem cell populations including hematopoietic stem cells and certain cancer stem cells. ALDH concentration was determined by using ([…] Dx) ELISA kit by following protocol: • 1 Standards (50 μl)/sample (40 μl) were added to the respective wells, (except Blank). • 2. (10 μl) Antibody-Biotin conjugate was then added in each sample well (except Blank). • 3. (50 μl) of Horse Radish Peroxidase (HRP) Conjugate was then added to each well (except Blank). • 4. The plates were incubated for one hour at 37° C. in the incubator. • 5. Wash (4 times with wash buffer) and blot residual buffer by firmly tapping the plate on the absorbent paper. Wipe off any liquid from the bottom of the microtiter wells as any residue can interfere in the reading step. • 6. Add TMB substrate A (50 μl) and then TMB substrate B (50 μl) to each well including Blank as well. • 7. Incubate for 10 mins at 37° C. in dark. • 8. Add (50 μl) stop solution. Wells should turn from blue to yellow. • 9. Read absorbance at 450 nm. • 10 A X-Y graph of concentration vs optical density was plotted. ALDH concentration was calculated by substituting optical density values in the regression analysis equation.

[9] = test system: PC3; test: In vitro sphere-forming assay (cancer stem cells), Prostosphere media; details: for 3D sphere count of PC3: Prostosphere media, 2000 cells/well, n = 6 ± S.D
Method: In Vitro Sphere-forming Assay: Sphere assay measures the ability of cancer stem cells (CSCs) to form spheres in specially designed serum-free medium.
Prostosphere Media Preparation (For 100 mL):1 g methyl cellulose autoclaved with magnetic stirrer, 100 mL plain media (Prostate Epithelial Basal Medium) was added and dissolved, under magnetic stirring. After complete dissolution, Insulin-40 μL, B27-2 mL, EGF-80 μL, Penstrep-1 ml was added.
Procedure—The cells were trypsinised and made into single-cell suspension by passing through cell strainers (100 μl and 40 μl, respectively), The cells were diluted at a concentration of 2000 cells/100 μL and suspended in either Mammosphere (for breast cell lines) or Prostosphere (for prostate cell lines). 100 μL of this suspension was added into each well of 96-well suspension plates and incubated at 37° C., 5% CO2 for 24 hrs. Appropriate concentrations of the drugs (2 μL) were added into respective wells with 100 μL of stem cell culture medium. Plates were incubated at 37° C., 50 CO2 for 72 hrs. After incubation, 2.5 μL of the respective drug concentration and 50 μL of stem cell culture medium were added into each well and the plates were further incubated at 37° C., 50% CO2 for 72 hrs. 3 μL of the respective drug concentration was added with 50 μL of stem cell culture medium again after incubation and plates were reincubated for 72 hrs at 37° C., 50 CO2. Number of primary spheres formed for each concentration were counted. The spheres were converted to 0 viability of spheres compared to untreated (Growth Control with DMSO, GCD).

[10] = Homo sapiens, MDA-MB-231, read-out: % Viability of spheres (MDAMB231)
[11] = Homo sapiens, PC-3, read-out: % Viability of spheres (PC3)

## O=C1C(c2ccc3c(c2)OCO3)=CC(=O)c2c(OCCCCN3CCOCC3)cccc21 [Formula 2, 5-(4-morpholinobutoxy)-2-(benzo[d][1,3]dioxol-6-yl)naphthalene-1,4-dione]
[1]
  % inhibition of Wound Healing for Breast Cancer Cell line (MDAMB231) after 48 hrs: 53.69%
[2]; [10]
  viability at 0.025 µM: 84%
  viability at 0.25 µM: 66%
  viability at 2.5 µM: 46%
  viability at 25 µM: 30%
  viability at 250 µM: 14%
[2]; drug 0.025 uM
  3D sphere count of MDAMB231: 65(±5)
[2]; drug 0.25 uM
  3D sphere count of MDAMB231: 51(±3)
[2]; drug 2.5 uM
  3D sphere count of MDAMB231: 36(±3)
[2]; drug 25 uM
  3D sphere count of MDAMB231: 23(±3)
[2]; drug 250 uM
  3D sphere count of MDAMB231: 11(±3)
[3]
  IC50: 566 nM
[4]
  anticancer activity in comparison with cisplatin, soft agar, prostate cancer cell line: higher anticancer activity in comparison with cisplatin
  IC50: 2650 nM
[5]
  anticancer activity in comparison with cisplatin, soft agar, breast cancer cell line: higher anticancer activity in comparison with cisplatin
  IC50: 2080 nM
[6]
  IC50: 344 nM
[7]
  % inhibition of Wound Healing for Prostate Cancer Cell line (PC3) after 48 hrs: 45.25%
[8]
  % inhibition of ALDH on Breast Cancer Cell line (MDAMB231) after 48 hrs: 76.09%
[9]; [11]
  viability at 0.025 µM: 77%
  viability at 0.25 µM: 65%
  viability at 2.5 µM: 39%
  viability at 25 µM: 21%
  viability at 250 µM: 10%
[9]; drug 0.025 uM
  3D sphere count of PC3: 63(±4)
[9]; drug 0.25 uM
  3D sphere count of PC3: 53(±3)
[9]; drug 2.5 uM
  3D sphere count of PC3: 32(±4)
[9]; drug 25 uM
  3D sphere count of PC3: 17(±3)
[9]; drug 250 uM
  3D sphere count of PC3: 8(±2)

## O=C1C(NC2CCCCC2)=CC(=O)c2c(OCCN3CCOCC3)cccc21 [Formula 52]
[1]
  % inhibition of Wound Healing for Breast Cancer Cell line (MDAMB231) after 48 hrs: 37.42%
[2]; [10]
  viability at 0.0025 µM: 62%
  viability at 0.025 µM: 50%
  viability at 0.25 µM: 45%
  viability at 2.5 µM: 38%
  viability at 25 µM: 26%
[2]; drug 0.0025 uM
  3D sphere count of MDAMB231: 69(±3)
[2]; drug 0.025 uM
  3D sphere count of MDAMB231: 55(±7)
[2]; drug 0.25 uM
  3D sphere count of MDAMB231: 43(±3)
[2]; drug 2.5 uM
  3D sphere count of MDAMB231: 34(±4)
[2]; drug 25 uM
  3D sphere count of MDAMB231: 24(±3)
[3]
  IC50: 3130 nM
[4]
  anticancer activity in comparison with cisplatin, soft agar, prostate cancer cell line: higher anticancer activity in comparison with cisplatin
  IC50: 3270 nM
[5]
  anticancer activity in comparison with cisplatin, soft agar, breast cancer cell line: higher anticancer activity in comparison with cisplatin
  IC50: 3880 nM
[6]
  IC50: 4320 nM
[7]
  % inhibition of Wound Healing for Prostate Cancer Cell line (PC3) after 48 hrs: 34.7%
[8]
  % inhibition of ALDH on Breast Cancer Cell line (MDAMB231) after 48 hrs: 74.69%
[9]; [11]
  viability at 0.0025 µM: 87%
  viability at 0.025 µM: 77%
  viability at 0.25 µM: 62%
  viability at 2.5 µM: 49%
  viability at 25 µM: 30%
[9]; drug 0.0025 uM
  3D sphere count of PC3: 71(±3)
[9]; drug 0.025 uM
  3D sphere count of PC3: 63(±4)
[9]; drug 0.25 uM
  3D sphere count of PC3: 51(±3)
[9]; drug 2.5 uM
  3D sphere count of PC3: 40(±4)
[9]; drug 25 uM
  3D sphere count of PC3: 25(±3)

## COc1ccc(NC2=CC(=O)c3c(OCCN4CCOCC4)cccc3C2=O)cc1OC [Formula 40, 5-(2-morpholinoethoxy)-2-(3,4-dimethoxyphenylamino) naphthalene-1,4-dione]
[1]
  % inhibition of Wound Healing for Breast Cancer Cell line (MDAMB231) after 48 hrs: 45.84%
[2]; [10]
  viability at 0.0025 µM: 78%
  viability at 0.025 µM: 56%
  viability at 0.25 µM: 41 ± 4%
  viability at 2.5 µM: 27%
  viability at 25 µM: 10%
[2]; drug 0.0025 uM
  3D sphere count of MDAMB231: 60(±3)
[2]; drug 0.025 uM
  3D sphere count of MDAMB231: 43(±3)
[2]; drug 0.25 uM
  3D sphere count of MDAMB231: 32(±4)
[2]; drug 2.5 uM
  3D sphere count of MDAMB231: 21(±3)
[2]; drug 25 uM
  3D sphere count of MDAMB231: 8(±2)
[3]
  IC50: 951 nM
[4]
  anticancer activity in comparison with cisplatin, soft agar, prostate cancer cell line: higher anticancer activity in comparison with cisplatin
  IC50: 422 nM
[5]
  anticancer activity in comparison with cisplatin, soft agar, breast cancer cell line: higher anticancer activity in comparison with cisplatin
  IC50: 353 nM
[6]
  IC50: 1680 nM
[7]
  % inhibition of Wound Healing for Prostate Cancer Cell line (PC3) after 48 hrs: 48.56%
[8]
  % inhibition of ALDH on Breast Cancer Cell line (MDAMB231) after 48 hrs: 62.73%
[9]; [11]
  viability at 0.0025 µM: 80%
  viability at 0.025 µM: 65%
  viability at 0.25 µM: 47%
  viability at 2.5 µM: 34%
  viability at 25 µM: 17%
[9]; drug 0.0025 uM
  3D sphere count of PC3: 70(±5)
[9]; drug 0.025 uM
  3D sphere count of PC3: 57(±3)
[9]; drug 0.25 uM
  3D sphere count of PC3: 41(±3)
[9]; drug 2.5 uM
  3D sphere count of PC3: 30(±3)
[9]; drug 25 uM
  3D sphere count of PC3: 15(±3)
